Results: ChEMBL document CHEMBL4371054, “Dual inhibition of Kif15 by oxindole and quinazolinedione chemical probes” (Bioorg Med Chem Lett, 2019)
The source made the active and inactive calls. The calls are words filed in the database; no cut-off is given here.

Tests used:
[1] = biological target: T1, Kinesin-like protein KIF15 (Homo sapiens) (UniProt Q9NS87); assay: Inhibition of Kif15 in K51-resistant human KIRC1 cells assessed as cells with monopolar spindles at 25 uM after 24 hrs by Hoechst 33342 staining based immunofluorescence microscopic analysis (reference value: 43 to 49%); design: scale not given: the % may be the effect or the level left
T1 sequence (whole entry): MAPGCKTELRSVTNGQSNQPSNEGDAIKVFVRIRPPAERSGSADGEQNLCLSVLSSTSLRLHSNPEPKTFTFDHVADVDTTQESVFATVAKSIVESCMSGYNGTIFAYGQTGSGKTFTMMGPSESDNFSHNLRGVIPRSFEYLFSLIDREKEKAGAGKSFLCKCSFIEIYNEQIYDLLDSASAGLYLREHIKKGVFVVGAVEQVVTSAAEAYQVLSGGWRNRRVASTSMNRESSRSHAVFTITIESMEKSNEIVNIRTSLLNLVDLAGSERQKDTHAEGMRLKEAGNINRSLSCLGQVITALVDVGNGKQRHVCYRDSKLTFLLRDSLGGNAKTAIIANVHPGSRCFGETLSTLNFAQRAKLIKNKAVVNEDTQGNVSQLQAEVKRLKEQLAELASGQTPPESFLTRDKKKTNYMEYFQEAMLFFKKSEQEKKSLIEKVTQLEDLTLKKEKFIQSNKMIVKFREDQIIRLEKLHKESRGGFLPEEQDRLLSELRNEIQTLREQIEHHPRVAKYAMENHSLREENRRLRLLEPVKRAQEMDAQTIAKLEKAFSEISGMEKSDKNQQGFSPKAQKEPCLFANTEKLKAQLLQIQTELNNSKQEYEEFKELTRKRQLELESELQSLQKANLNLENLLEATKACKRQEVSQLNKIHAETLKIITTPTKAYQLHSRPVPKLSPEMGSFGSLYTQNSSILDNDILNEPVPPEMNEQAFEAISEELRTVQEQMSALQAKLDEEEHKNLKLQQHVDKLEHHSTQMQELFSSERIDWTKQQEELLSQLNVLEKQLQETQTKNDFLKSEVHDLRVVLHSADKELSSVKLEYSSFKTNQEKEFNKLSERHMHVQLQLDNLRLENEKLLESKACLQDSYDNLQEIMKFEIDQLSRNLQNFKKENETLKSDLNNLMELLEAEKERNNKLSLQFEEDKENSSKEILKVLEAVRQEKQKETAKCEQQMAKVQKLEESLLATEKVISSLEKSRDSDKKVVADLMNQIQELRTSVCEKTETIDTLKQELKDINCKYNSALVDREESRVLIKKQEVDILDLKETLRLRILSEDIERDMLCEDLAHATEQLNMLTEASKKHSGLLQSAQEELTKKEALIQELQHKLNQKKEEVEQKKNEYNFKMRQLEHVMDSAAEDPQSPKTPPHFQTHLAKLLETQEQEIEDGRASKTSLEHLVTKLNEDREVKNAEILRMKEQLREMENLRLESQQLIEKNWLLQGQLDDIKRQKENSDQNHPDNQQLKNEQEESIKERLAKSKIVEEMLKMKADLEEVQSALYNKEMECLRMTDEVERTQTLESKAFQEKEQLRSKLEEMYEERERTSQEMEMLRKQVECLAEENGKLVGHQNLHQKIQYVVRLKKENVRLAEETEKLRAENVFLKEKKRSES

[2] = biological target: T1, Kinesin-like protein KIF15 (Homo sapiens); assay: Inhibition of Kif15 in TP53-deficient human RPE1 cells assessed as reduction in spindle-bound Kif15 level at 25 uM after 24 hrs by Hoechst 33342 staining based immunofluorescence microscopic analysis relative to control
[3] = biological target: T1, Kinesin-like protein KIF15 (Homo sapiens); assay: Inhibition of recombinant His6-tagged Kif15 (N700 residues) (unknown origin) expressed in HeLa cells assessed as reduction in Alexa-594 labelled microtubule gliding at 750 nM measured every 2 secs for 20 secs by epifluorescence microscopic analysis (reference value: 1%); assay type: cell-based
[4] = biological target: T1, Kinesin-like protein KIF15 (Homo sapiens); assay: Inhibition of recombinant His6-tagged Kif15 (N700 residues) (unknown origin) expressed in HeLa cells assessed as reduction in Alexa-594 labelled microtubule gliding at 30 uM measured every 2 secs for 20 secs by epifluorescence microscopic analysis relative to control; assay type: cell-based
[5] = biological target: T2, Kinesin-like protein KIF11 (Homo sapiens) (UniProt P52732); assay: Inhibition of Eg5 (unknown origin) assessed as reduction in Alexa-594 labelled microtubule gliding at 30 uM measured every 2 secs for 20 secs by epifluorescence microscopic analysis relative to control
T2 sequence (whole entry): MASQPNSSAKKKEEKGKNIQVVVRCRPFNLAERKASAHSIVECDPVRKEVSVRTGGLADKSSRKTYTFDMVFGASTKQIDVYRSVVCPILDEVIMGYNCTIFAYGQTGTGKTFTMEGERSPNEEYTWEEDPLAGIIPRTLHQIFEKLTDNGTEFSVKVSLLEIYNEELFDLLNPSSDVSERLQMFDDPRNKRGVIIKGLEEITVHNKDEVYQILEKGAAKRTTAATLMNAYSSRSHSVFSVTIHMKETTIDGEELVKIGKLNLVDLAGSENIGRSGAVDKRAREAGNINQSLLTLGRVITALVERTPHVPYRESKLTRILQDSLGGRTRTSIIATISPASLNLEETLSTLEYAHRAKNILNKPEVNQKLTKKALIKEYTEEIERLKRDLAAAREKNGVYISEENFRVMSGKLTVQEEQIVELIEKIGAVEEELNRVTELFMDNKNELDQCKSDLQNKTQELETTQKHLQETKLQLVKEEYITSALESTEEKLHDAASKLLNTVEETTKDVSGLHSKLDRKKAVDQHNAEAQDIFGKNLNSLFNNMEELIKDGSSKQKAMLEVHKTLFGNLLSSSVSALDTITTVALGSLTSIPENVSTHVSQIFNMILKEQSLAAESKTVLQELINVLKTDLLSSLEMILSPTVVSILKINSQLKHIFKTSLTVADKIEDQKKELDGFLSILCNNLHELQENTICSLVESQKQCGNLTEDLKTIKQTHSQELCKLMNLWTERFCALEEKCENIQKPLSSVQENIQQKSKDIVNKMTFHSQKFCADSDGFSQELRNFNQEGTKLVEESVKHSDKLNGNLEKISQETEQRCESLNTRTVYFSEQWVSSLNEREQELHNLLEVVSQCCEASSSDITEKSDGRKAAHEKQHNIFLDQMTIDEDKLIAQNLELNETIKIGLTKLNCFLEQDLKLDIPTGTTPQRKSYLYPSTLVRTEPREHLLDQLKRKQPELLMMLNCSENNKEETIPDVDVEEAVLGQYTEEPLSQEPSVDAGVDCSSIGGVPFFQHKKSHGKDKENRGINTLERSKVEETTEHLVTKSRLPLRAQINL

[6] = biological target: T1, Kinesin-like protein KIF15 (Homo sapiens); assay: Inhibition of recombinant His6-tagged Kif15 ATPase activity (N420 residues) (unknown origin) expressed in HeLa cells at 10 uM using microtubule as substrate preincubated for 15 mins followed by ATP addition and measured after 20 mins by ADP-Glo luminescence assay relative to control
[7] = biological target: T1, Kinesin-like protein KIF15 (Homo sapiens); assay: Reversible inhibition of recombinant His6-tagged Kif15 (N700 residues) (unknown origin) expressed in HeLa cells assessed as reduction in Alexa-594 labelled microtubule gliding at 10 uM treated for 1 min followed by compound washout and measured every 2 secs for 1 min by epifluorescence microscopic analysis; assay type: cell-based

Question: For `O=C1Nc2ccc(C(=O)c3ccco3)cc2/C1=C/c1cc(Cl)c(O)c(Cl)c1`, which Activity [1] is on record?
Answer: Its Activity is 95%.

Question: What about the fold change (FC) [2] of the same compound?
Answer: Its fold change (FC) is 3.

Question: What about the inhibition [3] of the same compound?
Answer: Its inhibition is 49%.

Question: What about the inhibition [4] of the same compound?
Answer: The inhibition was 98.9%.

Question: What about the inhibition [5] of the same compound?
Answer: The inhibition was 19.8%.

Question: What about the inhibition [6] of the same compound?
Answer: The inhibition was 76%.

Question: What about the inhibition [7] of the same compound?
Answer: The inhibition was “Active”.
